Measurements from patent publication US7253146B2, “Template-fixed peptidomimetics with antimicrobial activity” (Polyphor Ltd, priority 2001, dated 2007).
Values after ≈ are worked out from the molar mass of the structure shown. *1 amine or outer side, *2 acyl side, *3 side chain or, on linkers, in order; H or OH if unused. Where a SMILES comes first, the peptide text is derived from it. [ ]: non-standard residue; d: D form. The star is where a group is joined. X3 = O=C(N[C@H]1C[C@@H](C(=O)[*:2])N([*:1])C1)C1CCCCC1; X2 = CCCCCCCC(=O)N[C@H]1C[C@@H](C(=O)[*:2])N([*:1])C1; Cha = N[C@@H](CC1CCCCC1)C(=O)O; Nle = CCCC[C@H](N)C(=O)O; Orn = NCCC[C@H](N)C(=O)O; Bn = c1ccc(C*)cc1

Tests used:
Candida albicans = tested on: Candida albicans
Experimental: (§1) Lyophilized peptides were weighed on a Microbalance (Mettler MT5) and dissolved in sterile water containing 0.01% acetic acid Tachyplesin was purchased from Bachem Ltd. (Bubendorf Switzerland).
(§2) The antimicrobial activities of the peptides were determined by the standard NCCLS broth microdilution method (see ref 1, below) examined in sterile 96-wells plates (Nunclon polystyrene microtiter plates) in a total volume of 100 μl. […] 10^6 colony forming units (CFU)/ml for bacteria or 5×10^3 CFU/ml for Candida. Aliquots (50 μl) of the innocula were added to 50 μl of MH broth containing the peptide in serial twofold dilutions. The microorganisms used were Escherichia coli (ATCC 25922), Pseudomnonas aeruginosa (P. aeruginosa) (ATCC 27853), Stahylococcus aureus (ATCC 29213 and ATCC 25923) and Candida albicans. A selected number of peptides were screened for activity against a larger panel of gram-negative strains. These strains were; Escherichia coli ATCC 43827 and clinical isolates of Pseudomonas (P. aeruginosa V07 14482, P. aeruginosa 15288, P. aeruginosa V02 15328 and P. aeruginosa V09 16085) and Acinetobacter (Acinetobacter V04 19905/1, Acinetobacter V12 21143/1 and Acinetobacter V12 21193/1).

[1] = tested on: Escherichia coli (ATCC 25922); details: ATCC 25922
Experimental: as §1, §2

[2] = tested on: Staphylococcus aureus ATCC 25923; details: ATCC 25923
Experimental: as §1, §2

[3] = tested on: Staphylococcus aureus ATCC 29213; details: ATCC 29213
Experimental: as §1, §2

Structure (SMILES)	MIC Candida albicans (Candida albicans) [µg/mL]	MIC Escherichia coli ATCC 25922 [1] [µg/mL]	MIC Staphylococcus aureus ATCC 25923 [2] [µg/mL]	MIC Staphylococcus aureus ATCC 29213 [3] [µg/mL]
CC(C)C[C@@H]1NC(=O)[C@H](Cc2ccc(O)cc2)NC(=O)[C@H](CCCNC(=N)N)NC(=O)[C@H](CCCNC(=N)N)NC(=O)[C@H](CCCNC(=N)N)NC(=O)[C@H](Cc2ccc(O)cc2)NC(=O)[C@H](CC(C)C)NC(=O)[C@H](CC(C)C)NC(=O)[C@H](Cc2ccc(O)cc2)NC(=O)[C@H](CCCNC(=N)N)NC(=O)[C@@H]2CCCN2C(=O)[C@H]2CCCN2C(=O)[C@H](CCCNC(=N)N)NC(=O)[C@H](CCCNC(=N)N)NC(=O)[C@H](Cc2ccc(O)cc2)NC(=O)[C@H](CC(C)C)NC1=O [Example 71] (cyclo(RYLLYRRRYLLYRR[dP]P))	50 (≈ 22.4 µM)	12.5 (≈ 5.59 µM)	12.5 (≈ 5.59 µM)	12.5 (≈ 5.59 µM)
CC(C)C[C@@H]1NC(=O)[C@H](CCCNC(=N)N)NC(=O)[C@H](CCCCN)NC(=O)[C@@H]2CCCN2C(=O)[C@H]2CCCN2C(=O)[C@H](CCCNC(=N)N)NC(=O)[C@H](CC(C)C)NC(=O)[C@H](C(C)C)NC(=O)[C@H](CCCCN)NC(=O)[C@H](C(C)C)NC(=O)[C@H](Cc2ccc(O)cc2)NC(=O)[C@H](Cc2c[nH]c3ccccc23)NC(=O)[C@H](CCCNC(=N)N)NC(=O)[C@H](CCCNC(=N)N)NC(=O)[C@H](CCCNC(=N)N)NC(=O)[C@H](Cc2c[nH]c3ccccc23)NC(=O)[C@H](Cc2ccc(O)cc2)NC(=O)[C@H](CCCCN)NC1=O [Example 87] (cyclo(KRLKYWRRRWYVKVLR[dP]P))	12.5 (≈ 5.03 µM)	6.2 (≈ 2.5 µM)	9.4 (≈ 3.79 µM)	9.4 (≈ 3.79 µM)
CC(C)C[C@@H]1NC(=O)[C@H](CCCNC(=N)N)NC(=O)[C@H](CC(C)C)NC(=O)[C@@H]2CCCN2C(=O)[C@H]2CCCN2C(=O)[C@H](C(C)C)NC(=O)[C@H](CCCNC(=N)N)NC(=O)[C@H](Cc2ccc(O)cc2)NC(=O)[C@H](CCCCN)NC(=O)[C@H](Cc2ccccc2)NC(=O)[C@H](CCCNC(=N)N)NC(=O)[C@H](CCCNC(=N)N)NC(=O)[C@H](Cc2ccc(O)cc2)NC(=O)[C@H](CCCCN)NC1=O [Example 103] (cyclo(LRLKYRRFKYRV[dP]P))	12.5 (≈ 6.67 µM)	9.4 (≈ 5.02 µM)	25 (≈ 13.3 µM)	25 (≈ 13.3 µM)
CC(C)C[C@@H]1NC(=O)[C@H](CCCNC(=N)N)NC(=O)[C@H](CC2CCCCC2)NC(=O)[C@@H]2CCCN2C(=O)[C@H]2CCCN2C(=O)[C@H](C(C)C)NC(=O)[C@H](CCCNC(=N)N)NC(=O)[C@H](Cc2ccc(O)cc2)NC(=O)[C@H](CCCCN)NC(=O)[C@H](Cc2c[nH]c3ccccc23)NC(=O)[C@H](CCCNC(=N)N)NC(=O)[C@H](CCCNC(=N)N)NC(=O)[C@H](CCCCN)NC(=O)[C@H](CCCCN)NC1=O [Example 121] (cyclo([Cha]RLKKRRWKYRV[dP]P))	6.2 (≈ 3.23 µM)	25 (≈ 13 µM)	6.2 (≈ 3.23 µM)	6.2 (≈ 3.23 µM)
CC[C@H](C)[C@@H]1NC(=O)[C@H](CCCCN)NC(=O)[C@H](Cc2c[nH]c3ccccc23)NC(=O)[C@H](CCCNC(=N)N)NC(=O)[C@H](CCCNC(=N)N)NC(=O)[C@H](CCCCN)NC(=O)[C@H](CCCCN)NC(=O)[C@H](CC(C)C)NC(=O)[C@H](CCCNC(=N)N)NC(=O)[C@H](CC(C)C)NC(=O)[C@@H]2CCCN2C(=O)[C@H]2CCCN2C(=O)[C@H](C(C)C)NC(=O)[C@H](CCCNC(=N)N)NC1=O [Example 152] (cyclo(LRLKKRRWKIRV[dP]P))	12.5 (≈ 6.84 µM)	25 (≈ 13.7 µM)	25 (≈ 13.7 µM)	50 (≈ 27.3 µM)
CCCC[C@@H]1NC(=O)[C@H](CCCCN)NC(=O)[C@H](Cc2c[nH]c3ccccc23)NC(=O)[C@H](CCCNC(=N)N)NC(=O)[C@H](CCCNC(=N)N)NC(=O)[C@H](CCCCN)NC(=O)[C@H](CCCCN)NC(=O)[C@H](CC(C)C)NC(=O)[C@H](CCCNC(=N)N)NC(=O)[C@H](CC(C)C)NC(=O)[C@@H]2CCCN2C(=O)[C@H]2CCCN2C(=O)[C@H](C(C)C)NC(=O)[C@H](CCCNC(=N)N)NC1=O [Example 154] (cyclo(LRLKKRRWK[Nle]RV[dP]P))	12.5 (≈ 6.84 µM)	12.5 (≈ 6.84 µM)	12.5 (≈ 6.84 µM)	25 (≈ 13.7 µM)
CC(C)C[C@@H]1NC(=O)[C@H](CCCNC(=N)N)NC(=O)[C@H](CC(C)C)NC(=O)[C@@H]2CCCN2C(=O)[C@H]2CCCN2C(=O)[C@H](C(C)C)NC(=O)[C@H](CCCNC(=N)N)NC(=O)[C@H]([C@@H](C)OCc2ccccc2)NC(=O)[C@H](CCCCN)NC(=O)[C@H](Cc2c[nH]c3ccccc23)NC(=O)[C@H](CCCNC(=N)N)NC(=O)[C@H](CCCNC(=N)N)NC(=O)[C@H](CCCCN)NC(=O)[C@H](CCCCN)NC1=O [Example 206] (cyclo(LRLKKRRWKT(Bn)RV[dP]P))	6.2 (≈ 3.25 µM)	6.2 (≈ 3.25 µM)	12.5 (≈ 6.56 µM)	12.5 (≈ 6.56 µM)
CC(C)C[C@@H]1NC(=O)[C@H](CCCNC(=N)N)NC(=O)[C@H](CC(C)C)NC(=O)[C@@H]2CCCN2C(=O)[C@H]2CCCN2C(=O)[C@H](C(C)C)NC(=O)[C@H](CCCNC(=N)N)NC(=O)[C@H](Cc2ccc(O)cc2)NC(=O)[C@H](CCCN)NC(=O)[C@H](Cc2c[nH]c3ccccc23)NC(=O)[C@H](CCCNC(=N)N)NC(=O)[C@H](CCCNC(=N)N)NC(=O)[C@H](CCCCN)NC(=O)[C@H](CCCCN)NC1=O [Example 217] (cyclo(LRLKKRRW[Orn]YRV[dP]P))	12.5 (≈ 6.7 µM)	18.8 (≈ 10.1 µM)	25 (≈ 13.4 µM)	12.5 (≈ 6.7 µM)
CC(C)C[C@@H]1NC(=O)[C@H](CCCNC(=N)N)NC(=O)[C@H](CC(C)C)NC(=O)[C@H](CC2CCCCC2)NC(=O)[C@H]2CCCN2C(=O)[C@H](C(C)C)NC(=O)[C@H](CCCNC(=N)N)NC(=O)[C@H](Cc2ccc(O)cc2)NC(=O)[C@H](CCCCN)NC(=O)[C@H](Cc2c[nH]c3ccccc23)NC(=O)[C@H](CCCNC(=N)N)NC(=O)[C@H](CCCNC(=N)N)NC(=O)[C@H](CCCCN)NC(=O)[C@H](CCCCN)NC1=O [Example 254] (cyclo([Cha]LRLKKRRWKYRV[dP]))	12.5 (≈ 6.46 µM)	12.5 (≈ 6.46 µM)	12.5 (≈ 6.46 µM)	6.2 (≈ 3.21 µM)
CCCCCCCC(=O)N[C@H]1C[C@H]2C(=O)N[C@@H](CC(C)C)C(=O)N[C@@H](CCCNC(=N)N)C(=O)N[C@@H](CC(C)C)C(=O)N[C@@H](CCCCN)C(=O)N[C@@H](CCCCN)C(=O)N[C@@H](CCCNC(=N)N)C(=O)N[C@@H](CCCNC(=N)N)C(=O)N[C@@H](Cc3c[nH]c4ccccc34)C(=O)N[C@@H](CCCCN)C(=O)N[C@@H](Cc3ccc(O)cc3)C(=O)N[C@@H](CCCNC(=N)N)C(=O)N[C@@H](C(C)C)C(=O)N3CCC[C@@H]3C(=O)N2C1 [Example 257] (cyclo(KKRRWKYRV[dP][X2]LRL))	25 (≈ 12.4 µM)	6.2 (≈ 3.07 µM)	6.2 (≈ 3.07 µM)	6.2 (≈ 3.07 µM)
CC(C)C[C@@H]1NC(=O)[C@H](CCCNC(=N)N)NC(=O)[C@H](CC(C)C)NC(=O)[C@@H]2C[C@H](NC(=O)C3CCCCC3)CN2C(=O)[C@H]2CCCN2C(=O)[C@H](C(C)C)NC(=O)[C@H](CCCNC(=N)N)NC(=O)[C@H](Cc2ccc(O)cc2)NC(=O)[C@H](CCCCN)NC(=O)[C@H](Cc2c[nH]c3ccccc23)NC(=O)[C@H](CCCNC(=N)N)NC(=O)[C@H](CCCNC(=N)N)NC(=O)[C@H](CCCCN)NC(=O)[C@H](CCCCN)NC1=O [Example 267] (cyclo(KKRRWKYRV[dP][X3]LRL))	12.5 (≈ 6.24 µM)	12.5 (≈ 6.24 µM)	12.5 (≈ 6.24 µM)	6.2 (≈ 3.09 µM)
